Experimental data: patent US7834144B2 (priority 2005, dated 2010)
“And” between values parts separate entries of the source, which are not always exact repeats. Identical values can stand only once. Like-named read-outs stand apart in the source and are kept apart here. Where a SMILES comes first, the peptide text is derived from it. Where no end group is shown, it is not given here. [ ]: non-standard residue; d: D form. The star is where a group is joined. ξ: configuration not given here. Biotinyl(4ξ) = O=C1N[C@H]2CSC(CCCCC(=O)*)[C@H]2N1; Nspe = C[C@H](NCC(=O)O)c1ccccc1; NhArg = N=C(N)NCCCCNCC(=O)O; Nmpe = not defined here; Nae = not defined here; Nlys = NCCCCNCC(=O)O

Key:
PrPc = PrPc (Homo sapiens, UniProt P04156); assay type: binding
PrP^Sc = PrP^Sc (Homo sapiens, UniProt P04156); assay type: binding; conditions: for Exp. Mean (1 ul 10% CJD BH): streptavidin beads
[1] = Table 6, CJD brain homogenate in 20% human plasma
[2] = Table 6, CJD brain homogenate in 20% human plasma, ELISA signal
[3] = Table 5, 70% human plasma, streptavidin beads, ELISA signal
[4] = Table 5, 1 ul 10% CJD BH, 70% human plasma
[5] = Table 5, 70% human plasma, ELISA signal

Row | Compound | Mean (% of 68) (PrP^Sc; [1]) [%] | Mean (PrP^Sc; [2]) | Control Mean (1 ul 10% Normal BH) (PrPc; [3]) | Exp. Mean (as % of 68) (PrP^Sc; [4]) [%] | Exp. Mean (1 ul 10% CJD BH) (PrP^Sc; [5]) | other results
1 | CC(=O)N(CCCCN)CC(=O)N(CCCCN)CC(=O)N(CCCCN)CC(=O)N(CCCCN)CC(=O)N(CCCCN)CC(=O)N[C@@H](CCCCNC(=O)CCCCC1SC[C@@H]2NC(=O)N[C@H]12)C(N)=O (some centres unmarked) [Peptoid Reagent I] | 104.31 | 88.64 | – | – | – | Normal Mean (PrPc; Table 8, 2 microliters of 10% normal brain homogenate in 70% human plasma): 3.31; CJD Mean (PrP^Sc; Table 8, 2 microliters of 10% CJD brain homogenate in 70% human plasma): 124.47
2 | (GGG)KKRPKPGG [compound 68, reference compound] | – | – | – | – | – | Control Mean (1 ul 10% Normal BH) (PrPc): 19.2; Exp. Mean (as % of 68) (PrP^Sc): 100.0% and 100.1%; Mean (PrP^Sc): 84.98 and 137.9; Mean (% of 68) (PrP^Sc): 100.0%
3 | CC(=O)N(CCCCN)CC(=O)N(CC(=O)N(CCCCN)CC(=O)N(CCCCN)CC(=O)N(CC(=O)N(CCCCN)CC(=O)N[C@@H](CCCCNC(=O)CCCCC1SC[C@@H]2NC(=O)N[C@H]12)C(N)=O)[C@@H](C)c1ccccc1)[C@@H](C)c1ccccc1 (some centres unmarked) [Peptoid Reagent X] (Ac-[Nlys][Nspe][Nlys][Nlys][Nspe][Nlys]K(Biotinyl(4ξ))-NH2) | – | – | 7.28 | 114.5 | 478.7 | –
4 | Peptoid Reagent III: peptoid reagent comprising SEQ ID NO: 231, Nae-Nmpe-Nmpe-Nae-Nmpe-Nmpe-Nae-Nmpe-Nmpe ([Nae][Nmpe][Nmpe][Nae][Nmpe][Nmpe][Nae][Nmpe][Nmpe]; reading uncertain; also: printed as Nae-Nmpe-Nmpe-Nae-Nmpe-Nmpe-Nae-Nmpe-Nmpe) | 2.15 | 1.83 | – | – | – | –
5 | CC(=O)N(CCCCN)CC(=O)N(CCCCN)CC(=O)N(CCCCN)CC(=O)N(CC(=O)N(CCCCN)CC(=O)N(CC(=O)N[C@@H](CCCCNC(=O)CCCCC1SC[C@@H]2NC(=O)N[C@H]12)C(N)=O)[C@@H](C)c1ccccc1)[C@@H](C)c1ccccc1 (some centres unmarked) [Peptoid Reagent IX] (Ac-[Nlys][Nlys][Nlys][Nspe][Nlys][Nspe]K(Biotinyl(4ξ))-NH2) | – | – | 9.47 | 126.5 | 528.8 | Control Mean (1 ul 10% Normal BH) (PrPc; Table 4, 70% human plasma, streptavidin beads, ELISA signal): 20.1; Exp. Mean (as % of 68) (PrP^Sc; Table 4, 1 ul 10% CJD BH, 70% human plasma): 121.9%; Exp. Mean (1 ul 10% CJD BH) (PrP^Sc; Table 4, 70% human plasma, ELISA signal): 1039.4
6 | (GGG)QWNKPSKPKTN [compound 14, reference compound] | – | – | – | – | – | Mean (PrP^Sc): 4.74; Mean (% of 68) (PrP^Sc): 5.58%
7 | CC(=O)N(CCCCN)CC(=O)N(CCCCN)CC(=O)N(CCCCNC(=N)N)CC(=O)N(CC(=O)N(CCCCN)CC(=O)N(CC(=O)N[C@@H](CCCCNC(=O)CCCCC1SC[C@@H]2NC(=O)N[C@H]12)C(N)=O)[C@@H](C)c1ccccc1)[C@@H](C)c1ccccc1 (some centres unmarked) [Peptoid Reagent II] (Ac-[Nlys][Nlys][NhArg][Nspe][Nlys][Nspe]K(Biotinyl(4ξ))-NH2) | 124.85 | 106.10 | 7.02 | 110.8 | 463.5 | –
